Measured values from ChEMBL document CHEMBL3885861, “Open TG-GATES”.

Species on record: Rattus norvegicus
Test: Open TG-GATES - Regimen: Single
Assay type: toxicity, organism-based, Sprague-Dawley
Set-up: regimen Single, gender Male, age 6 weeks
Conditions: in vivo, po, 300 mg/kg, route gavage, dose level High; for APTT / Bas / Eos / Fbg / Hb / Ht / Lym / MCH / MCHC / MCV / Mono / Neu / PT / Plat / RBC / Ret / WBC: tissue Blood; for KIDNEY_L / KIDNEY_R / KIDNEY_TOTAL: tissue Kidney; for LIVER: tissue Liver; for A/G / ALP / ALT / AST / BUN / CRE / Ca / Cl / DBIL / GLC / IP / K / LDH / Na / PL / RALB / TBIL / TC / TG / TP / gamma-GTP: tissue Plasma

SMILES: CCC1(c2ccccc2)C(=O)NC(=O)NC1=O [PHENOBARBITAL]
- TERMINAL_BW (3 h): 225.3 g
- APTT (3 h): 22 s
- Bas (3 h): 0.2%
- Eos (3 h): 1%
- Fbg (3 h): 202.2 mg/dL
- Hb (3 h): 13.6 g/dL
- Ht (3 h): 37.8%
- Lym (3 h): 78.6%
- MCH (3 h): 21.9 pg
- MCHC (3 h): 36%
- MCV (3 h): 61.1 fL
- Mono (3 h): 2.8%
- Neu (3 h): 16.6%
- PT (3 h): 12.3 s
- Plat (3 h): 122.8 x10_4/uL
- RBC (3 h): 619.4 x10_4/ul
- Ret (3 h): 7.8%
- WBC (3 h): 75.1 x10_2/uL
- KIDNEY_L (3 h): 1 g
- KIDNEY_R (3 h): 1 g
- KIDNEY_TOTAL (3 h): 2.1 g
- LIVER (3 h): 10 g
- A/G (3 h): 1.6
- ALP (3 h): 833 IU/L
- ALT (3 h): 40.2 IU/L
- AST (3 h): 73 IU/L
- BUN (3 h): 8 mg/dL
- CRE (3 h): 0.3 mg/dL
- Ca (3 h): 10.5 mg/dL
- Cl (3 h): 100.6 meq/L
- DBIL (3 h): 0.064 mg/dL
- GLC (3 h): 183.2 mg/dL
- IP (3 h): 10.3 mg/dL
- K (3 h): 4.1 meq/L
- LDH (3 h): 142 IU/L
- Na (3 h): 140.6 meq/L
- PL (3 h): 152 mg/dL
- RALB (3 h): 3.2 g/dL
- TBIL (3 h): 0.1 mg/dL
- TC (3 h): 77 mg/dL
- TG (3 h): 57.2 mg/dL
- TP (3 h): 5.1 g/dL
- gamma-GTP (3 h): 0.8 IU/L
- TERMINAL_BW (6 h): 221.9 g
- APTT (6 h): 20.5 s
- Bas (6 h): 0%
- Eos (6 h): 1%
- Fbg (6 h): 219 mg/dL
- Hb (6 h): 14.2 g/dL
- Ht (6 h): 39.1%
- Lym (6 h): 76.8%
- MCH (6 h): 21.8 pg
- MCHC (6 h): 36.3%
- MCV (6 h): 60.2 fL
- Mono (6 h): 3.4%
- Neu (6 h): 17.6%
- PT (6 h): 12 s
- Plat (6 h): 120.7 x10_4/uL
- RBC (6 h): 649.4 x10_4/ul
- Ret (6 h): 7.7%
- WBC (6 h): 62.8 x10_2/uL
- KIDNEY_L (6 h): 1 g
- KIDNEY_R (6 h): 1 g
- KIDNEY_TOTAL (6 h): 2 g
- LIVER (6 h): 9.4 g
- A/G (6 h): 1.6
- ALP (6 h): 672.6 IU/L
- ALT (6 h): 29.2 IU/L
- AST (6 h): 58.4 IU/L
- BUN (6 h): 8.6 mg/dL
- CRE (6 h): 0.3 mg/dL
- Ca (6 h): 10.5 mg/dL
- Cl (6 h): 100.4 meq/L
- DBIL (6 h): 0.07 mg/dL
- GLC (6 h): 176 mg/dL
- IP (6 h): 9.5 mg/dL
- K (6 h): 4.2 meq/L
- LDH (6 h): 162.2 IU/L
- Na (6 h): 139.2 meq/L
- PL (6 h): 142.4 mg/dL
- RALB (6 h): 3.2 g/dL
- TBIL (6 h): 0.1 mg/dL
- TC (6 h): 74.4 mg/dL
- TG (6 h): 44.2 mg/dL
- TP (6 h): 5.2 g/dL
- gamma-GTP (6 h): 1.2 IU/L
- TERMINAL_BW (9 h): 219.7 g
- APTT (9 h): 19.3 s
- Bas (9 h): 0%
- Eos (9 h): 0.8%
- Fbg (9 h): 219.4 mg/dL
- Hb (9 h): 13.8 g/dL
- Ht (9 h): 38.3%
- Lym (9 h): 71.8%
- MCH (9 h): 22 pg
- MCHC (9 h): 36%
- MCV (9 h): 60.9 fL
- Mono (9 h): 3.6%
- Neu (9 h): 22%
- PT (9 h): 12.4 s
- Plat (9 h): 125.2 x10_4/uL
- RBC (9 h): 630.2 x10_4/ul
- Ret (9 h): 7.7%
- WBC (9 h): 73.7 x10_2/uL
- KIDNEY_L (9 h): 1 g
- KIDNEY_R (9 h): 1 g
- KIDNEY_TOTAL (9 h): 1.9 g
- LIVER (9 h): 8.6 g
- A/G (9 h): 1.5
- ALP (9 h): 558.2 IU/L
- ALT (9 h): 35.8 IU/L
- AST (9 h): 78 IU/L
- BUN (9 h): 9 mg/dL
- CRE (9 h): 0.3 mg/dL
- Ca (9 h): 10.3 mg/dL
- Cl (9 h): 99.6 meq/L
- DBIL (9 h): 0.064 mg/dL
- GLC (9 h): 186.2 mg/dL
- IP (9 h): 9.7 mg/dL
- K (9 h): 4.2 meq/L
- LDH (9 h): 170.4 IU/L
- Na (9 h): 139.4 meq/L
- PL (9 h): 137.8 mg/dL
- RALB (9 h): 3 g/dL
- TBIL (9 h): 0.1 mg/dL
- TC (9 h): 74.8 mg/dL
- TG (9 h): 29.8 mg/dL
- TP (9 h): 5 g/dL
- gamma-GTP (9 h): 1 IU/L
- TERMINAL_BW (24 h): 201.5 g
- APTT (24 h): 24.3 s
- Bas (24 h): 1%
- Eos (24 h): 1%
- Fbg (24 h): 207 mg/dL
- Hb (24 h): 16.1 g/dL
- Ht (24 h): 44.2%
- Lym (24 h): 82.3%
- MCH (24 h): 22 pg
- MCHC (24 h): 36.6%
- MCV (24 h): 60.1 fL
- Mono (24 h): 2.3%
- Neu (24 h): 13%
- PT (24 h): 12.3 s
- Plat (24 h): 145.9 x10_4/uL
- RBC (24 h): 735.3 x10_4/ul
- Ret (24 h): 6.5%
- WBC (24 h): 84.5 x10_2/uL
- KIDNEY_L (24 h): 1 g
- KIDNEY_R (24 h): 1 g
- KIDNEY_TOTAL (24 h): 2 g
- LIVER (24 h): 7.7 g
- A/G (24 h): 1.6
- ALP (24 h): 449.7 IU/L
- ALT (24 h): 21 IU/L
- AST (24 h): 53 IU/L
- BUN (24 h): 9 mg/dL
- CRE (24 h): 0.3 mg/dL
- Ca (24 h): 10.5 mg/dL
- Cl (24 h): 100 meq/L
- DBIL (24 h): 0.06 mg/dL
- GLC (24 h): 141 mg/dL
- IP (24 h): 9 mg/dL
- K (24 h): 4.6 meq/L
- LDH (24 h): 113.3 IU/L
- Na (24 h): 139.3 meq/L
- PL (24 h): 100 mg/dL
- RALB (24 h): 3.2 g/dL
- TBIL (24 h): 0.1 mg/dL
- TC (24 h): 58.7 mg/dL
- TG (24 h): 13.3 mg/dL
- TP (24 h): 5.2 g/dL
- gamma-GTP (24 h): 1 IU/L
